Measurements as given in patent US9051295B2, “1-substituted indazole derivative” (Dainippon Sumitomo Pharma Co., Ltd., priority 2012, dated 2015).

Molecular target: T1, human α7 nAChR (Homo sapiens, UniProt P36544)
T1 construct: expressed in transfected cells; host or cells: GH4C1 cells (rat pituitary, ATCC CCL-82.2)
Assay: Evaluation of PAM activity with human α7 nACh receptor stably expressing cells (aequorin luminescence, FDSS7000, ACh EC20)
Format: cell-based
Settings: for α7PAM (%) @ 10 μmol/L: test compound 10 μmol/L, ACh at EC20, ratio of RLU (Max-Min) of test-compound wells to control wells; for PAM activity for α7 nAChR (in words): statement on Table 8 data
Source text: Evaluation of PAM Activity with Human α7 nACh Receptor Stably Expressing Cells
(1) Human α7 nAChR Stably Expressing Cells
Human α7 nAChR stably expressing cells were generated and cultured. In detail, GH4C1 cells derived from rat pituitary (cat#CCL-82.2, ATCC, USA) were used as a host cell. PcDNA3.1Zeo vector containing a nucleotide sequence encoding a protein GenBank BAC81731 and pcDNA3.1 vector containing human α7 nAChR gene (cat#V790-20, invitrogen, Carlsbad, Calif., USA) were transfected to the cells to give aequorins and human α7 nAChR stably expressing cells respectively. The aequorins and human α7 nAChR stably expressing cells were screened with Zeocin (cat#R25001, invitrogen, Carlsbad, Calif., USA) and Geneticin (cat#10131-027, invitrogen, Carlsbad, Calif., USA) respectively.
The cells were cultured in F-10 Nutrient Mixture (Ham) medium (cat#11550-043, invitrogen, Carlsbad, Calif., USA) containing 2.5% fetal bovine serum (cat#2917354, ICN Biomedicals, Inc, USA), 15% inactivated horse serum (cat#26050-088, invitrogen, Carlsbad, Calif., USA), 1 μg/mL Geneticin, and 5 μg/mL Puromycin (cat#14861-84, invitrogen, Carlsbad, Calif., USA), in a Collagen Type 1-coated dish (cat#4030-010, iwaki, Tokyo, Japan). During the culture, the medium was replaced with fresh medium in every 2 to 3 days, and the cells were treated with TrypLE Express (cat#45604-021, invitrogen, Carlsbad, Calif., USA) to collect them in every 7 days. Thus, the cells were subcultured.
7 Days after subculturing, the cells were treated with TrypLE Express to collect them when they were about 80% confluent. The cells were suspended in a reaction medium containing Hanks (cat#14065-056, invitrogen, Carlsbad, Calif., USA)/20 mmol/L Hepes (cat#15630-080, invitrogen, Carlsbad, Calif., USA), Buffer (pH 7.4), F-10 Nutrient Mixture (Ham), and 0.1 mg/mL Geneticin, and the suspension was seeded in a 384-well plate (cat#781090, Greiner, Germany) at 20000 cells/25 μL per well.
On the next day after seeding, Viviren (cat#E649X, Promega, Madison, Wis., USA) was added to the medium so that the final concentration could be 4 μmol/L (15 μL/well). The plates were centrifuged and then placed in the dark for 4 hours at room temperature.
(2) Preparation of the Test Samples
Each of the test compounds was dissolved in DMSO to prepare each test sample at a concentration of 1000-fold the final concentration. To the solution was added Hanks/20 mM HEPES/0.2% BSA (cat#A3803, Sigma, St. Louis, Mo., USA), and the concentration was adjusted to 6-fold the final concentration.
(3) Evaluation of PAM Activity
FDSS7000 (Hamamatsu Photonics) was used to detect the luminescence signal evoked by α7 nAChR stimulation. The cells and a luminescent substrate were put on a plate, and the test sample was added thereto. […] After the addition of ACh, the luminescence signal (the central wavelength: 465 nm) was measured for 138 seconds to calculate RLU (Max-Min). The ratio of the RLU (Max-Min) of the test-compound-containing wells to that of the control wells was defined as PAM activity.

T1 sequence (P36544 23-502): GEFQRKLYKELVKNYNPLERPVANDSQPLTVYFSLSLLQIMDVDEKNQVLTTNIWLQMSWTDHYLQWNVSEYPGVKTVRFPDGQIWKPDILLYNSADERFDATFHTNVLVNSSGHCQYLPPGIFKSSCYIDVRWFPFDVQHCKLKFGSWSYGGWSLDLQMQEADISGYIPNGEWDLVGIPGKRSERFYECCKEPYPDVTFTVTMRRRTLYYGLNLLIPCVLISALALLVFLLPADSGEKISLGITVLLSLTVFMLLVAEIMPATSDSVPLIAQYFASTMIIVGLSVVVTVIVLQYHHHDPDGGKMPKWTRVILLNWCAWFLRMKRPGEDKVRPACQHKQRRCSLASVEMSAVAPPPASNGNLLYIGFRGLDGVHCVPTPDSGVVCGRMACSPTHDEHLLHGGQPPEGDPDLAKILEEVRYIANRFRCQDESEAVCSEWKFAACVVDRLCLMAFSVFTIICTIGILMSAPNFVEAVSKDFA

Row | Structure (SMILES) | α7PAM (%) @ 10 μmol/L | PAM activity for α7 nAChR (in words)
1 | O=C(NC1CCC(F)(F)CC1)N1CCC(n2ncc3cc(OC4CC4)ccc32)CC1 [Example 249, 4-[5-(cyclopropoxy)-1H-indazol-1-yl]-N-(4,4-difluorocyclohexyl)piperidine-1-carboxamide] | 1463% | 
2 | Cc1ccc2c(cnn2C2CCN(C(=O)NC3CCCCC3)CC2)c1 [Example 8, N-cyclohexyl-4-(5-methyl-1H-indazol-1-yl)piperidine-1-carboxamide] | 3053% | stronger PAM activity than others
3 | O=C(C1CCOCC1)N1CCC(n2ncc3cc(F)ccc32)CC1 [Example 104] | 190% | 
4 | COCc1c(C)ccc2c1cnn2C1CCN(C(=O)NC2CCC(F)(F)CC2)CC1 [Example 213] | 800% | 
5 | COCC1CCC(NC(=O)N2CCC(n3ncc4cc(C)ccc43)CC2)CC1 (stereo not shown) [Example 220] |  | stronger PAM activity than others
6 | COc1ccc2c(cnn2C2CCN(C(=O)NC3CCCCC3)CC2)c1 [Example 40] |  | stronger PAM activity than others
7 | O=C(NC1CCOCC1)N1CCC(n2ncc3c(OC(F)(F)F)cccc32)CC1 [Example 304] | 380% | 
8 | CO[C@H]1CC[C@H](NC(=O)N2CCC(n3ncc4c(C)c(C)ccc43)CC2)CC1 [Example 225] | 480% | 
9 | CCCc1ccc2c(cnn2C2CCN(C(=O)NC3CCOCC3)CC2)c1 [Example 15, 4-(5-propyl-1H-indazol-1-yl)-N-(tetrahydro-2H-pyran-4-yl)piperidine-1-carboxamide] | 1025% | 
10 | CCc1ccc2c(cnn2[C@H]2CC[C@@H](NC(=O)NC3CCC(F)(F)CC3)CC2)c1 [Example 5, 1-(4,4-difluorocyclohexyl)-3-(cis-4-(5-ethyl-1H-indazol-1-yl)cyclohexyl)urea] | 1368% | 
11 | COc1c(C(F)(F)F)ccc2c1cnn2C1CCN(C(=O)NC2CCC(OC)CC2)CC1 (stereo not shown) [Example 317] | 360% | 
12 | CCc1ccc2c(cnn2C2CCN(C(=O)NC3CCC(F)(F)CC3)CC2)c1 [Example 23] | 6196% | stronger PAM activity than others
13 | CO[C@H]1CCC[C@H](NC(=O)N2CCC(n3ncc4cc(C5CC5)ccc43)CC2)C1 [Example 211, 4-(5-cyclopropyl-1H-indazol-1-yl)-N-[(1S,3S)-3-methoxycyclohexyl]piperidine-1-carboxamide] | 1034% | 
14 | CCc1ccc2c(cnn2C2CCN(C(=O)NC3CCCOC3)CC2)c1 (stereo not shown) [Example 22, 4-(5-ethyl-1H-indazol-1-yl)-N-(tetrahydro-2H-pyran-3-yl)piperidine-1-carboxamide] | 1425% | 
15 | CO[C@H]1CC[C@H](NC(=O)N2CCC(n3ncc4cc(-c5ccc(F)cc5)ccc43)CC2)CC1 [Example 155] | 210% | 
16 | COC(C)c1c(C)ccc2c1cnn2C1CCN(C(=O)NC2CCC(F)(F)CC2)CC1 (stereo not shown) [Example 232] | 860% | 
17 | CCOc1cccc2c1cnn2C1CCN(C(=O)N[C@H]2CC[C@@H](OC)CC2)CC1 [Example 184] | 200% | 
18 | CCOc1ccc2c(cnn2C2CCN(C(=O)NC3CCCC3)CC2)c1 [Example 17] |  | stronger PAM activity than others
19 | CC(C)Oc1ccc2c(cnn2C2CCN(C(=O)NC3CCCCC3)CC2)c1 [Example 48, N-cyclohexyl-4-(5-isopropoxy-1H-indazol-1-yl)piperidine-1-carboxamide] | 1202% | 

Row | Structure (SMILES) | α7PAM (%) @ 10 μmol/L | PAM activity for α7 nAChR (in words)
20 | CO[C@H]1CC[C@H](NC(=O)N2CCC(n3ncc4cc(OC(F)F)ccc43)CC2)CC1 [Example 291, 4-[5-(difluoromethoxy)-1H-indazol-1-yl]-N-(trans-4-methoxycyclohexyl)piperidine-1-carboxamide] | 1433% | 
21 | CCOc1ccc2c(cnn2C2CCN(C(=O)NC3CCCCC3)CC2)c1 [Example 18, N-cyclohexyl-4-(5-ethoxy-1H-indazol-1-yl)piperidine-1-carboxamide] | 6779% | stronger PAM activity than others
22 | O=C(NC1CCOCC1)N1CCC(n2ncc3cc(C(F)(F)F)ccc32)CC1 [Example 297] | 340% | 
23 | CCc1ccc2c(cnn2[C@H]2CC[C@@H](NC(=O)C3CCC(F)(F)CC3)CC2)c1 [Example 4, N-(cis-4-(5-ethyl-1H-indazol-1-yl)cyclohexyl)-4,4-difluorocyclohexanecarboxamide] | 2344% | stronger PAM activity than others
24 | Cc1ccc2c(cnn2C2CCN(C(=O)NC3CCC(OCC(F)(F)F)CC3)CC2)c1 (stereo not shown) [Example 83] | 420% | 
25 | Cc1ccc2c(cnn2C2CCN(C(=O)N[C@H]3CCCC3(F)F)CC2)c1 [Example 80, (S)—N-(2,2-difluorocyclopentyl)-4-(5-methyl-1H-indazol-1-yl)piperidine-1-carboxamide] | 1033% | 
26 | Cc1ccc2c(cnn2C2CCN(C(=O)NC3CCC(F)(F)CC3)CC2)c1 [Example 13, N-(4,4-difluorocyclohexyl)-4-(5-methyl-1H-indazol-1-yl)piperidine-1-carboxamide] | 3399% | stronger PAM activity than others
27 | COCCCc1ccc2c(cnn2C2CCN(C(=O)N[C@H]3CC[C@H](OC)CC3)CC2)c1 [Example 32] | 430% | 
28 | Cc1ccc2c(c1)c(C)nn2C1CCN(C(=O)NC2CCC(F)(F)CC2)CC1 [Example 45, N-(4,4-difluorocyclohexyl)-4-(3,5-dimethyl-1H-indazol-1-yl)piperidine-1-carboxamide] | 1576% | 
29 | CCc1ccc2c(cnn2[C@H]2CC[C@@H](NC(=O)[C@H]3CC[C@H](OC)CC3)CC2)c1 [Example 122] | 410% | 
30 | CCc1ccc2c(cnn2C2CCN(C(=O)N[C@H]3CC[C@H](OC)CC3)CC2)c1OC [Example 255, 4-(5-ethyl-4-methoxy-1H-indazol-1-yl)-N-(trans-4-methoxycyclohexyl)piperidine-1-carboxamide] | 1096% | 
31 | CCc1ccc2c(cnn2C2CCN(C(=O)C3CCOCC3)CC2)c1 [Example 111] | 410% | 
32 | O=C(NC1CCC(F)(F)CC1)N1CCC(n2ncc3c(OC(F)F)cccc32)CC1 [Example 201] | 370% | 
33 | Cc1ccc2c(cnn2C2CCN(C(=O)N[C@H]3CCCCC3(F)F)CC2)c1 [Example 79, (S)—N-(2,2-difluorocyclohexyl)-4-(5-methyl-1H-indazol-1-yl)piperidine-1-carboxamide] | 1064% | 
34 | CCc1ccc2c(cnn2C2CCN(C(=O)NC3CCCC3)CC2)c1 [Example 20] |  | stronger PAM activity than others
35 | COCc1nn(C2CCN(C(=O)NC3CCCCC3)CC2)c2ccc(C)cc12 [Example 68] | 430% | 
36 | COc1ccc2c(cnn2C2CCN(C(=O)NC3CCC(F)(F)CC3)CC2)c1 [Example 41, N-(4,4-difluorocyclohexyl)-4-(5-methoxy-1H-indazol-1-yl)piperidine-1-carboxamide] | 3749% | stronger PAM activity than others
37 | CCc1ccc2c(cnn2[C@H]2CC[C@@H](NC(=O)C3CCCCC3)CC2)c1 [Example 119] |  | stronger PAM activity than others
